Columns and labels:
MOLT-4 = assay: Growth inhibition of human MOLT4 cells after 48 hrs by sulforhodamine B assay; type: functional; conditions: MOLT-4, 48 h
LOX IMVI = assay: Growth inhibition of human LOXIMVI cells assessed as cell growth at 10 uM after 48 hrs by sulforhodamine B assay; type: functional; conditions: read-out: Activity
NCI-H23 = assay: Growth inhibition of human NCI-H23 cells after 48 hrs by sulforhodamine B assay; type: functional; conditions: NCI-H23, 48 h
Malme-3M = assay: Growth inhibition of human MALME-3M cells after 48 hrs by sulforhodamine B assay; type: functional
[1] = Growth inhibition of human Hs 578T cells after 48 hrs by sulforhodamine B assay; type: functional
[2] = Growth inhibition of human Hs 578T cells assessed as cell growth at 10 uM after 48 hrs by sulforhodamine B assay; type: functional; conditions: read-out: Activity
HCT-116 = assay: Growth inhibition of human HCT116 cells after 48 hrs by sulforhodamine B assay; type: functional; conditions: HCT-116, 48 h
MDA-MB-231 = assay: Growth inhibition of human MDA-MB-231 cells after 48 hrs by sulforhodamine B assay; type: functional; conditions: MDA-MB-231, 48 h
A549 [3] = assay: Growth inhibition of human A549/ATCC cells after 48 hrs by sulforhodamine B assay; type: functional; conditions: A549, 48 h
NCI-H322M [4] = assay: Growth inhibition of human NCI-H322M cells assessed as cell growth at 10 uM after 48 hrs by sulforhodamine B assay; type: functional; conditions: read-out: Activity
SF-268 = assay: Growth inhibition of human SF268 cells assessed as cell growth at 10 uM after 48 hrs by sulforhodamine B assay; type: functional; conditions: SF-268, 48 h, read-out: Activity
UACC-62 = assay: Growth inhibition of human UACC62 cells assessed as cell growth at 10 uM after 48 hrs by sulforhodamine B assay; type: functional; conditions: UACC-62, 48 h, read-out: Activity
SNB-19 [5] = assay: Growth inhibition of human SNB19 cells after 48 hrs by sulforhodamine B assay; type: functional; conditions: SNB-19, 48 h
SN12C = assay: Growth inhibition of human SN12C cells assessed as cell growth at 10 uM after 48 hrs by sulforhodamine B assay; type: functional; conditions: read-out: Activity
MDA-MB-435 = assay: Growth inhibition of human MDA-MB-435 cells assessed as cell growth at 10 uM after 48 hrs by sulforhodamine B assay; type: functional; conditions: MDA-MB-435, 48 h, read-out: Activity
PC-3 = assay: Growth inhibition of human PC3 cells after 48 hrs by sulforhodamine B assay; type: functional, cell-based; conditions: PC-3, 48 h
NCI-H460 = assay: Growth inhibition of human NCI-H460 cells assessed as cell growth at 10 uM after 48 hrs by sulforhodamine B assay; type: functional; conditions: NCI-H460, 48 h, read-out: Activity
RXF 393 [6] = assay: Growth inhibition of human RXF393 cells assessed as cell growth at 10 uM after 48 hrs by sulforhodamine B assay; type: functional; conditions: RXF 393, 48 h, read-out: Activity
IGROV-1 = assay: Growth inhibition of human IGROV1 cells after 48 hrs by sulforhodamine B assay; type: functional; conditions: IGROV-1, 48 h
SNB-19 [7] = assay: Growth inhibition of human SNB19 cells assessed as cell growth at 10 uM after 48 hrs by sulforhodamine B assay; type: functional; conditions: SNB-19, 48 h, read-out: Activity
TK-10 = assay: Growth inhibition of human TK10 cells assessed as cell growth at 10 uM after 48 hrs by sulforhodamine B assay; type: functional; conditions: TK-10, 48 h, read-out: Activity
HL-60(TB) = assay: Growth inhibition of human HL-60(TB) cells assessed as cell growth at 10 uM after 48 hrs by sulforhodamine B assay; type: functional; conditions: HL-60, 48 h, read-out: Activity
SF-539 = assay: Growth inhibition of human SF539 cells assessed as cell growth at 10 uM after 48 hrs by sulforhodamine B assay; type: functional; conditions: SF-539, 48 h, read-out: Activity
BT-549 = assay: Growth inhibition of human BT549 cells assessed as cell growth at 10 uM after 48 hrs by sulforhodamine B assay; type: functional; conditions: BT-549, 48 h, read-out: Activity
OVCAR-5 = assay: Growth inhibition of human OVCAR5 cells after 48 hrs by sulforhodamine B assay; type: functional; conditions: OVCAR-5, 48 h
A549 [8] = assay: Growth inhibition of human A549/ATCC cells assessed as cell growth at 10 uM after 48 hrs by sulforhodamine B assay; type: functional; conditions: A549, 48 h, read-out: Activity
RXF 393 [9] = assay: Growth inhibition of human RXF393 cells after 48 hrs by sulforhodamine B assay; type: functional; conditions: RXF 393, 48 h
NCI-H322M [10] = assay: Growth inhibition of human NCI-H322M cells after 48 hrs by sulforhodamine B assay; type: functional
U-251 = assay: Growth inhibition of human U251 cells after 48 hrs by sulforhodamine B assay; type: functional; conditions: U-251, 48 h
786-0 = assay: Growth inhibition of human 786-0 cells assessed as cell growth at 10 uM after 48 hrs by sulforhodamine B assay; type: functional; conditions: 786-0, 48 h, read-out: Activity
MDA-MB-468 = assay: Growth inhibition of human MDA-MB-468 cells after 48 hrs by sulforhodamine B assay; type: functional, cell-based; conditions: MDA-MB-468, 48 h
HT-29 = assay: Growth inhibition of human HT-29 cells after 48 hrs by sulforhodamine B assay; type: functional; conditions: HT-29, 48 h
SF-295 = assay: Growth inhibition of human SF295 cells after 48 hrs by sulforhodamine B assay; type: functional, cell-based; conditions: SF-295, 48 h
SK-MEL-5 = assay: Growth inhibition of human SK-MEL-5 cells assessed as cell growth at 10 uM after 48 hrs by sulforhodamine B assay; type: functional; conditions: SK-MEL-5, 48 h, read-out: Activity
[11] = read-out: LC50 (the source's name)

With `COc1cc(-c2nn(-c3cccc(NC(=O)Nc4ccc(Cl)c(C(F)(F)F)c4)c3)cc2-c2ccncc2)ccc1Cl` the GI50 (MOLT-4) was 1.02 µM, the TGI (MOLT-4) was 7.96 µM and the CC50 (MOLT-4; [11]) was > 32.5 µM. For the same molecule, the growth at 10 µM (LOX IMVI) was 1.06%, the GI50 (NCI-H23) was 1.31 µM and the LC50 (NCI-H23) was > 32.5 µM. For the same molecule, the TGI (NCI-H23) was 8.03 µM, the GI50 (Malme-3M) was 0.838 µM and the LC50 (concentration killing 50% of starting cells) (Malme-3M) was > 32.5 µM. It also gave a TGI (Malme-3M) of 2.35 µM, a GI50 [1] of 1.32 µM and a TGI [1] of 18.3 µM. For the same molecule, the CC50 [1, 11] was > 32.5 µM, the growth at 10 µM [2] was 2.21% and the GI50 (HCT-116) was 1.17 µM. The TGI (HCT-116) was 4.56 µM, the CC50 (HCT-116; [11]) was 21.5 µM and the GI50 (MDA-MB-231) was 0.76 µM. For the same molecule, the LC50 (MDA-MB-231) was 13.3 µM, the TGI (MDA-MB-231) was 2.6 µM and the GI50 (A549 [3]) was 1.02 µM. For the same molecule, the LC50 (concentration killing 50% of starting cells) (A549 [3]) was > 32.5 µM, the TGI (A549 [3]) was 16.7 µM and the growth at 10 µM (NCI-H322M [4]) was 32.3%. For the same molecule, the growth at 10 µM (SF-268) was 13.8%, the growth at 10 µM (UACC-62) was -43.8% and the GI50 (SNB-19 [5]) was 1.24 µM. The LC50 (concentration killing 50% of cells) (SNB-19 [5]) was > 32.5 µM, the TGI (SNB-19 [5]) was 9.24 µM and the growth at 10 µM (SN12C) was 12.6%. The growth at 10 µM (MDA-MB-435) was -52.3%, the GI50 (PC-3) was 0.69 µM and the IC50 (PC-3) was 0.69 µM. The TGI (PC-3) was 2.45 µM, the CC50 (PC-3; [11]) was > 32.5 µM and the growth at 10 µM (NCI-H460) was 1.7%. The growth at 10 µM (RXF 393 [6]) was -27.8%, the GI50 (IGROV-1) was 1.2 µM and the LC50 (concentration killing 50% of cells) (IGROV-1) was > 32.5 µM. The TGI (IGROV-1) was 4.22 µM, the growth at 10 µM (SNB-19 [7]) was 26.4% and the growth at 10 µM (TK-10) was 12.6%. It also gave a growth at 10 µM (HL-60(TB)) of -19.8%, a growth at 10 µM (SF-539) of 6.56% and a growth at 10 µM (BT-549) of 7.16%. The GI50 (OVCAR-5) was 3.09 µM, the LC50 (concentration killing 50% of cells) (OVCAR-5) was > 32.5 µM and the TGI (OVCAR-5) was 11 µM. For the same molecule, the growth at 10 µM (A549 [8]) was -10.4%, the GI50 (RXF 393 [9]) was 1.18 µM and the LC50 (concentration killing 50% of cells) (RXF 393 [9]) was > 32.5 µM. It also gave a TGI (RXF 393 [9]) of 6.29 µM, a GI50 (NCI-H322M [10]) of 1.5 µM and a TGI (NCI-H322M [10]) of 13.9 µM. The CC50 (NCI-H322M [10]; [11]) was > 32.5 µM, the GI50 (U-251) was 0.985 µM and the LC50 (concentration killing 50% of cells) (U-251) was 24.7 µM. It also gave a TGI (U-251) of 4.18 µM, a growth at 10 µM (786-0) of 15.1% and a GI50 (MDA-MB-468) of 0.833 µM. For the same molecule, the IC50 (MDA-MB-468) was 0.83 µM, the TGI (MDA-MB-468) was 4.42 µM and the CC50 (MDA-MB-468; [11]) was > 32.5 µM. For the same molecule, the GI50 (HT-29) was 1.19 µM, the TGI (HT-29) was 4.45 µM and the CC50 (HT-29; [11]) was 21.5 µM. The GI50 (SF-295) was 0.84 µM, the IC50 (SF-295) was 0.84 µM and the TGI (SF-295) was 2.54 µM. For the same molecule, the CC50 (SF-295; [11]) was 14.9 µM and the growth at 10 µM (SK-MEL-5) was -65.3%.

From ChEMBL document CHEMBL2440076, “New triarylpyrazoles as broad-spectrum anticancer agents: design, synthesis, and biological evaluation” (Eur J Med Chem, 2013)
